Experimental findings from PubChem BioAssay AID248 (DTP/NCI, 2004) are described below.

This test relates to L1210 leukemia ip in BDF1 mice, survival T/C. Briefly: NCI In Vivo Anticancer Drug Screen. Data for tumor model L1210 Leukemia (intraperitoneal) in B6D2F1 (BDF1) mice. Conditions: endpoint: mean survival time, higher = longer survival. In outline:
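Value reflects the ratio of survival in compound-treated mice to survival in vehicle-treated controls, with both groups carrying the same transplanted tumor.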

Setting [1] is: dose: 100.0 mg/kg/injection, schedule: Q01DX009 (ip), vehicle: saline with Tween-80.
The mark [2] stands for this setting: dose: 200.0 mg/kg/injection, schedule: Q01DX009 (ip), vehicle: saline with Tween-80.
[3] abbreviates: dose: 6.25 mg/kg/injection, schedule: Q01DX009 (ip), vehicle: saline.
Where [4] appears, read: dose: 100.0 mg/kg/injection, schedule: Q04DX003 (ip), vehicle: saline with Tween-80.
Where [5] appears, read: dose: 200.0 mg/kg/injection, schedule: Q04DX003 (ip), vehicle: saline with Tween-80.
The mark [6] stands for this setting: dose: 400.0 mg/kg/injection, schedule: Q04DX003 (ip), vehicle: saline with Tween-80.
Where [7] appears, read: dose: 100.0 mg/kg/injection, schedule: Q01DX009 (ip), vehicle: Klucel (hydroxypropylcellulose) (HPC).
[8] abbreviates: dose: 100.0 mg/kg/injection, schedule: Q04DX003 (ip), vehicle: Klucel (hydroxypropylcellulose) (HPC).
Setting [9] is: dose: 200.0 mg/kg/injection, schedule: Q01DX009 (ip), vehicle: Klucel (hydroxypropylcellulose) (HPC).
Setting [10] is: dose: 200.0 mg/kg/injection, schedule: Q04DX003 (ip), vehicle: Klucel (hydroxypropylcellulose) (HPC).
[11] abbreviates: dose: 400.0 mg/kg/injection, schedule: Q01DX009 (ip), vehicle: Klucel (hydroxypropylcellulose) (HPC).
[12] abbreviates: dose: 400.0 mg/kg/injection, schedule: Q04DX003 (ip), vehicle: Klucel (hydroxypropylcellulose) (HPC).
Setting [13] is: dose: 100.0 mg/kg/injection, schedule: Q01DX001 (ip), vehicle: carboxymethylcellulose (CMC).
[14] abbreviates: dose: 200.0 mg/kg/injection, schedule: Q01DX001 (ip), vehicle: carboxymethylcellulose (CMC).
Where [15] appears, read: dose: 400.0 mg/kg/injection, schedule: Q01DX001 (ip), vehicle: carboxymethylcellulose (CMC).

Where “and” joins values, the source holds several entries; their conditions need not be identical. Identical values can stand only once. Toxic doses and inconclusive results are not listed.

On to `Nc1nc(-c2ccccc2)cc(-c2ccccc2)c1-c1ccccc1`, for which the T/C (dose: 50.0 mg/kg/injection, schedule: Q01DX009 (ip), vehicle: saline with Tween-80) was 108 % of control; the T/C under setting [1] is 112 % of control; the T/C under setting [2] is 104 % of control.

Take `[Cl][Al]([Cl])[Cl]`: the T/C is 102 % of control under setting [3]; 93 % of control (dose: 12.5 mg/kg/injection, schedule: Q01DX009 (ip), vehicle: saline); 91 % of control (dose: 50.0 mg/kg/injection, schedule: Q04DX003 (ip), vehicle: saline); 97 % of control and 89 % of control and 96 % of control (dose: 100.0 mg/kg/injection, schedule: Q01DX001 (ip), vehicle: saline); 87 % of control (dose: 100.0 mg/kg/injection, schedule: Q01DX009 (ip), vehicle: saline); 100 % of control and 87 % of control (dose: 100.0 mg/kg/injection, schedule: Q04DX003 (ip), vehicle: saline). In addition, the T/C is, setting by setting: (dose: 200.0 mg/kg/injection, schedule: Q01DX001 (ip), vehicle: saline) 98 % of control and 94 % of control; (dose: 200.0 mg/kg/injection, schedule: Q01DX009 (ip), vehicle: saline) 96 % of control; (dose: 200.0 mg/kg/injection, schedule: Q04DX003 (ip), vehicle: saline) 96 % of control and 101 % of control and 90 % of control; (dose: 400.0 mg/kg/injection, schedule: Q01DX001 (ip), vehicle: saline) 100 % of control and 114 % of control; (dose: 400.0 mg/kg/injection, schedule: Q01DX009 (ip), vehicle: saline) 91 % of control.

For the molecule `COC(CCCl)c1ccccc1` (stereo not drawn), the T/C under setting [1] was 101 % of control; the T/C under setting [4] was 100 % of control; the T/C under setting [2] is 100 % of control; the T/C under setting [5] is 96 % of control; the T/C under setting [6] was 91 % of control.

Regarding `CC(=O)c1c(C)c(C)cc(C)c1C`, the T/C was 110 % of control under setting [7]; 96 % of control under setting [8]; 97 % of control under setting [9]; 103 % of control under setting [10]; 111 % of control under setting [11]; 103 % of control under setting [12].

As to `Cc1cc(NC(=O)Nc2ccc(Cl)c(C(F)(F)F)c2)no1`, the T/C runs as follows: (dose: 50.0 mg/kg/injection, schedule: Q01DX009 (ip), vehicle: carboxymethylcellulose (CMC)) 96 % of control and 97 % of control; under setting [13], 110 % of control and 112 % of control; (dose: 100.0 mg/kg/injection, schedule: Q04DX002 (ip), vehicle: carboxymethylcellulose (CMC)) 94 % of control and 100 % of control; (dose: 100.0 mg/kg/injection, schedule: Q04DX003 (ip), vehicle: carboxymethylcellulose (CMC)) 96 % of control and 103 % of control; under setting [14], 95 % of control and 108 % of control; (dose: 200.0 mg/kg/injection, schedule: Q04DX002 (ip), vehicle: carboxymethylcellulose (CMC)) 94 % of control and 97 % of control. Also, the T/C is 97 % of control and 101 % of control (dose: 200.0 mg/kg/injection, schedule: Q04DX003 (ip), vehicle: carboxymethylcellulose (CMC)); 94 % of control and 91 % of control under setting [15]; 86 % of control (dose: 400.0 mg/kg/injection, schedule: Q01DX009 (ip), vehicle: carboxymethylcellulose (CMC)); 89 % of control and 90 % of control (dose: 400.0 mg/kg/injection, schedule: Q04DX002 (ip), vehicle: carboxymethylcellulose (CMC)); 92 % of control and 95 % of control (dose: 400.0 mg/kg/injection, schedule: Q04DX003 (ip), vehicle: carboxymethylcellulose (CMC)).

For the molecule `O=NN(CCCl)C(=O)N[C@@H]1CCC[C@@H](O)C1`, the T/C by setting is: (dose: 13.0 mg/kg/injection, schedule: Q01DX001 (ip), vehicle: saline with Tween-80) 250 % of control; (dose: 20.0 mg/kg/injection, schedule: Q01DX001 (ip), vehicle: saline with Tween-80) 357 % of control; (dose: 30.0 mg/kg/injection, schedule: Q01DX001 (ip), vehicle: saline with Tween-80) 420 % of control; (dose: 44.0 mg/kg/injection, schedule: Q01DX001 (ip), vehicle: saline with Tween-80) 417 % of control.

On to `Cc1ccc(NC(=O)N(Cc2ccccc2)Cc2ccccc2)c([N+](=O)[O-])c1`, for which the T/C runs as follows: (dose: 50.0 mg/kg/injection, schedule: Q01DX009 (ip), vehicle: Klucel (hydroxypropylcellulose) (HPC)) 87 % of control; under setting [7], 123 % of control; under setting [8], 95 % of control; under setting [9], 90 % of control; under setting [10], 101 % of control; under setting [12], 99 % of control.

In the case of `O=C1N(C[P+](c2ccccc2)(c2ccccc2)c2ccccc2)CCCN1C[P+](c1ccccc1)(c1ccccc1)c1ccccc1`, the T/C was 96 % of control (dose: 1.56 mg/kg/injection, schedule: Q01DX009 (ip), vehicle: saline); 150 % of control (dose: 1.56 mg/kg/injection, schedule: Q04DX002 (ip), vehicle: saline); 100 % of control (dose: 3.12 mg/kg/injection, schedule: Q01DX005 (ip), vehicle: saline); 93 % of control (dose: 3.12 mg/kg/injection, schedule: Q01DX009 (ip), vehicle: saline); 88 % of control (dose: 3.12 mg/kg/injection, schedule: Q04DX002 (ip), vehicle: saline); 94 % of control (dose: 6.25 mg/kg/injection, schedule: Q01DX005 (ip), vehicle: saline). For the same molecule, the T/C was 86 % of control under setting [3] and 95 % of control (dose: 6.25 mg/kg/injection, schedule: Q04DX002 (ip), vehicle: saline).

As for `O=C1c2cc(Br)ccc2-c2c(I)cc(Br)cc21`, the T/C (dose: 50.0 mg/kg/injection, schedule: Q01DX001 (ip), vehicle: carboxymethylcellulose (CMC)) is 103 % of control; the T/C under setting [13] is 100 % of control; the T/C under setting [14] is 100 % of control; the T/C under setting [15] was 100 % of control.

On to `CC1(C)N=C(N)N=C(N)N1c1ccc(OCC(=O)Nc2ccccc2)c(Cl)c1`, for which the T/C is 102 % of control under setting [7]; 97 % of control under setting [8]; 94 % of control under setting [9]; 90 % of control under setting [10]; 93 % of control under setting [11]; 92 % of control under setting [12].

Turning to `C=C(C)c1c2c(Sc3ccc(C(C)(C)C)cc3)cccc2cc2cccc(Sc3ccc(C(C)(C)C)cc3)c12`, the T/C reads like this: under setting [4], 98 % of control; under setting [5], 93 % of control; under setting [6], 91 % of control.

`O=C(O)COc1ccc(OS(=O)(=O)c2ccccc2)cc1`: the T/C is, setting by setting: (dose: 100.0 mg/kg/injection, schedule: Q04DX002 (ip), vehicle: Klucel (hydroxypropylcellulose) (HPC)) 103 % of control; (dose: 200.0 mg/kg/injection, schedule: Q04DX002 (ip), vehicle: Klucel (hydroxypropylcellulose) (HPC)) 111 % of control; (dose: 400.0 mg/kg/injection, schedule: Q04DX002 (ip), vehicle: Klucel (hydroxypropylcellulose) (HPC)) 103 % of control.

Take `CCCC(C)C(C(=O)O)c1ccccc1` (stereo not drawn): the T/C is, setting by setting: under setting [1], 102 % of control; under setting [4], 117 % of control; under setting [2], 104 % of control; under setting [5], 100 % of control; (dose: 400.0 mg/kg/injection, schedule: Q01DX009 (ip), vehicle: saline with Tween-80) 100 % of control; under setting [6], 99 % of control.

Regarding `O=c1cc(NCc2ccccc2Cl)[nH]c(=O)[nH]1`, the T/C is, setting by setting: (dose: 100.0 mg/kg/injection, schedule: Q01DX001 (ip), vehicle: gum acacia) 93 % of control; (dose: 200.0 mg/kg/injection, schedule: Q01DX001 (ip), vehicle: gum acacia) 95 % of control; (dose: 400.0 mg/kg/injection, schedule: Q01DX001 (ip), vehicle: gum acacia) 101 % of control.

In the case of `Cc1ccc(Nc2nc(N)nc(N)c2N)c(C)c1`, for the setting “dose: 12.0 mg/kg/injection, schedule: Q01DX Z (ip), vehicle: saline”, the T/C was 110 % of control.

On to `C/C(=N\O)c1ccccc1C`, for which the T/C runs as follows: under setting [8], 101 % of control; under setting [10], 106 % of control; under setting [12], 93 % of control.
